The record followed here is ChEMBL document CHEMBL1147261, “Xanthanolides, germacranolides, and other constituents from Carpesium longifolium” (J Nat Prod, 2003).

Converted amounts (≈) assume the structure as drawn.

One assay relates to SMMC-7721. In words: Cytotoxicity against human SMMC7721 cells by MTT assay. It is filed as functional, cell-based.
Assay [1] can be described thus: Cytotoxicity against human HO8910 cells by MTT assay. In kind it is functional, cell-based. Particulars: HO-8910.

On to `C=C1C(=O)O[C@@H]2C3O[C@]3(C)CC/C=C(\C)CC[C@@H]12` (stereo partly drawn), for which the IC50 in the assay on SMMC-7721 was determined as 4.2 µg/mL (≈ 16.9 µM); in assay [1], 1.37 µg/mL (≈ 5.52 µM).
In the case of `COc1ccc(C2CC(=O)c3c(O)cc(OC)cc3O2)cc1` (stereo not drawn), the IC50 (in the assay with SMMC-7721; in assay [1]) was greater than 200 µg/mL in each case.
In the case of `C/C1=C\CC[C@@]2(C)O[C@@H]2[C@H]2OC(=O)[C@@H](C)[C@@H]2CC1` [11BETA,13-DIHYDRO-PARTHENOLIDE], the IC50 in the assay on SMMC-7721 was greater than 200 µg/mL; in assay [1], 158 µg/mL (≈ 631 µM).
For `CC[C@]1(O)C[C@H]2CN(CCc3c([nH]c4ccccc34)[C@@](C(=O)OC)(c3cc4c(cc3OC)N(C=O)[C@H]3[C@@](O)(C(=O)OC)[C@H](OC(C)=O)[C@]5(CC)C=CCN6CC[C@]43[C@@H]65)C2)C1` [VINCRISTINE], in that order: 20.7 µg/mL (≈ 25.1 µM) and 1.37 µg/mL (≈ 1.66 µM).
